For test [1], the target named is T1, ROCKII (1-543) (Homo sapiens (Human), UniProt O75116). Description: Luciferin-Luciferase Assay (PKLight ATP detection). It is filed as biochemical. Conditions: 750 nM ATP, 500 nM peptide, 7.5 nM kinase. The procedure: 1. Luciferin-Luciferase Assay
The activity of ROCKII (1-543) kinase was measured utilizing Cambrex PKLight ATP Detection Reagent, a homogeneous assay technology using luciferin-luciferase to quantify residual ATP. The assay was performed in 384-well low-volume, white, non-binding surface microtiter plates (Corning). The assay buffer was 25 mM HEPES, pH 7.5, 10 mM MgCl2, 50 mM KCl, 0.2% BSA, 0.01% CHAPS, 100 μM Na3VO4 and 0.5 mM DTT. Test compounds, dissolved in neat DMSO at 500 μg/mL, were serially diluted for dose response for a final starting concentration of 3 μg/mL in 1% DMSO of assay buffer. ROCKII (1-543) (62,408Da) was diluted in assay buffer to a final concentration of 7.5 nM in a total volume of 15 μL. Positive controls were reaction mixtures containing no test compound; negative controls (blanks) were reaction mixtures containing no kinase. After 15 minutes of pre-incubation of the test compounds with the kinase, a mixture of ATP and peptide substrate ([…]) in assay buffer was added to each well for a final concentration of 750 nM ATP and 500 nM peptide, respectively. After 90 minutes of incubation of the kinase reaction at 28° C. temperature, 10 μL of PKLight ATP Detection Reagent (warmed to room temperature previously) was added to each well. The assay plate was incubated at room temperature for additional 15 minutes and then read on an Analyst in luminescence mode. Dose-response experiments for each of the test compounds were conducted in quadruplet. IC50 values of test compounds represent 50% response of the positive control from the dose-response curve.
Target sequence in this assay (O75116 1-543): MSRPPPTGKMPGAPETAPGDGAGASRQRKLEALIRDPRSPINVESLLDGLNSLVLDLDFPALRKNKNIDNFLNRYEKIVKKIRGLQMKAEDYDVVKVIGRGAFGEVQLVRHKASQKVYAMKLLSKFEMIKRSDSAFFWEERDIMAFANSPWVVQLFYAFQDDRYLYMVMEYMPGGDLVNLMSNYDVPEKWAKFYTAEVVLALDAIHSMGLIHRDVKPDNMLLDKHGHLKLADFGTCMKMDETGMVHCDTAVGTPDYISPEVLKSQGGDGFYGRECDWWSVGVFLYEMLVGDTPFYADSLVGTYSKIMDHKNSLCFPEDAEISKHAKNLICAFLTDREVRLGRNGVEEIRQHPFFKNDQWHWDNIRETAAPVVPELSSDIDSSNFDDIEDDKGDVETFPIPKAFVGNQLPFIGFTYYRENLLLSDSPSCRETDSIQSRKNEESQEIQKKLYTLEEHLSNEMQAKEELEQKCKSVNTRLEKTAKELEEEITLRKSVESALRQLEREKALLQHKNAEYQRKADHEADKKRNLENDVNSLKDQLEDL

For test [2], the target named is T1, ROCKII (1-543). The test is described as follows: IMAP Assay (fluorescence polarization, FAM S6 peptide). Conditions: 100 μM ATP, 200 nM FAM S6 peptide, 1 nM kinase; read-out: Assay 2 IC50. It is filed as biochemical. The procedure: This assay is performed using FAM S6 substrate peptide (Catalogue #R7184) and IMAP FP Screening Express Kit detection reagents from Molecular Devices (Sunnyvale, Calif.) in IMAP kinase reaction buffer (Tris-HCl, pH 7.2, 10 mM MgCl2, 0.05% NaN3, 0.1% phosphate-free BSA) containing 1 mM DTT. Test compounds dissolved in neat DMSO at 0.3 mg/mL are serially diluted 1 to 3 for concentration response in 100% DMSO. The DMSO serial dilutions are further diluted 33.33-fold in kinase reaction buffer, and 10 μL of this buffer dilution is transferred to Corning black 96-well half area NBS plates for a final top concentration of 3 μg/mL in 1% DMSO. 10 μL aliquot of 3 nM ROCKII (1-543) diluted in kinase reaction buffer is added to each assay well for a final concentration of 1 nM kinase. 10 μL of a mixture of 600 nM FAM S6 peptide and 300 μM ATP diluted in kinase reaction buffer is added to each well for a final concentration of 200 nM peptide and 100 μM ATP. The kinase reaction mixture is incubated for 60 minutes at room temperature. Positive controls are reaction mixtures containing no test compound and negative controls (blanks) are reaction mixtures containing no kinase. The kinase reaction is stopped by addition of 60 μL IMAP progressive binding reagent (Catalog #R7284) diluted 400-fold in 1× Binding buffer A. After 30 min of incubation at room temperature, the plates are read for fluorescence polarization on Analyst Plate Reader using Ex 485 nm, Em 530 nm, and FL 505 dichroic mirror. The mP signals are converted to percent of control (POC) values using the formula: POC=100*(Signal−BCTRL)÷(PCTRL−BCTRL)
Where Signal is the test well signal, BCTRL is the average of background (negative control) well signals on the plate and PCTRL is the average of positive control well signals on the plate. For the concentration-responsive compounds, POC as a function of test compound concentration is fitted to a 4-parameter logistic equation of the form: Y=A+(B−A)/[1+(x/C)D] Where A, B, C, and D are fitted parameters (parameter B is fixed at zero POC), and x and y are the independent and dependent variables, respectively. The IC50 is determined as the inflection point parameter, C.
Target sequence in this assay (O75116 1-543, species assumed): as the sequence (O75116 1-543) above
On the technique in general: Polarisation of emitted light reports the rotation of a fluorescent probe.

Another test has as its system Dahl salt-sensitive rats. The note with it: rat, in vivo; cited from earlier work.
Test [3] concerns spontaneously hypertensive rat, renal hypertensive rat and deoxycortisone acetate salt hypertensive rat models. The note with it: cited from earlier work.
Test [4] deals with neointimal formation in rats. Conditions: cited from earlier work.
Test [5] relates to IL-1 beta-induced coronary stenosis. The note with it: long term treatment; cited from earlier work.
The next test concerns rat stroke model. The note with it: in vivo; cited from earlier work.

Molecules are shown by their SMILES. pIC50: −log10 of the molar value.

With `CN(C)[C@H]1CCc2nc(NC(=O)c3cccc([C@H]4CCCN4C(=O)c4ccc5[nH]c(=O)ccc5c4)c3)sc2C1` [Compound 108], the pIC50 was 8.64 on ROCKII (1-543) [1] and 8.44 on ROCKII (1-543) [2].

With `N#Cc1cccc2c1CCN2C(=O)N1CCC[C@@H]1c1cccc(C(=O)Nc2nc3c(s2)C[C@@H](N2CCOCC2)CC3)c1` [Compound 110], the pIC50 against ROCKII (1-543) [1] and at ROCKII (1-543) [2] was 8.54 throughout.

In the case of `COc1ccc(C(=O)N2CCC[C@@H]2c2cccc(C(=O)Nc3nc4c(s3)C[C@@H](N3CCOCC3)CC4)c2)cc1OC` [Compound 112], the pIC50 on ROCKII (1-543) [1] is 8.44; on ROCKII (1-543) [2] it was 8.17.

For the molecule `COc1ccc(C(=O)N2CCC[C@@H]2c2cccc(C(=O)Nc3nc4c(s3)C[C@@H](N3CCOCC3)CC4)c2)cc1C` [Compound 116], the figures for the pIC50 at ROCKII (1-543) [1] and on ROCKII (1-543) [2] were 8.11 and 8.01, respectively.

As to `O=C(Nc1nc2c(s1)C[C@@H](N1CCOCC1)CC2)c1cccc([C@H]2CCCN2C(=O)c2ccc(-c3cnco3)cc2)c1` [Compound 118], the pIC50 is 8.60 on ROCKII (1-543) [1] and 8.16 on ROCKII (1-543) [2].

In the case of `O=C(Nc1nc2c(s1)C[C@@H](N1CCOCC1)CC2)c1cccc([C@H]2CCCN2C(=O)c2csc(-c3ccncc3)n2)c1` [Compound 120], the negative-log IC50 (pIC50) against ROCKII (1-543) [1] is 8.49; at ROCKII (1-543) [2], 8.10.

For `O=C(Nc1nc2c(s1)C[C@@H](N1CCOCC1)CC2)c1cccc([C@H]2CCCN2C(=O)c2ccc(-n3ccnc3)cc2)c1` [Compound 122], the values for the pIC50 against ROCKII (1-543) [1] and at ROCKII (1-543) [2] were 8.46 and 8.08, respectively.

Consider `NC(=O)c1ccc2nc(C(=O)N3CCC[C@@H]3c3cccc(C(=O)Nc4nc5c(s4)C[C@@H](N4CCOCC4)CC5)c3)cn2c1` [Compound 124], for which the pIC50 on ROCKII (1-543) [1] was 8.64; at ROCKII (1-543) [2], 8.17.

Turning to `O=C(Nc1nc2c(s1)C[C@@H](N1CCOCC1)CC2)c1cccc([C@H]2CCCN2C(=O)c2ccc3[nH]c(=O)ccc3c2)c1` [Compound 126], the pIC50 against ROCKII (1-543) [1] is 8.57; on ROCKII (1-543) [2] it was 8.15.

Turning to `Cc1nc(-c2ccncc2)sc1C(=O)N1CCC[C@@H]1c1cccc(C(=O)Nc2nc3c(s2)C[C@@H](N2CCOCC2)CC3)c1` [Compound 128], the pIC50 at ROCKII (1-543) [1] is 8.44; at ROCKII (1-543) [2], 7.54.

As to `O=C(Nc1nc2c(s1)C[C@@H](N1CCOCC1)CC2)c1cccc([C@H]2CCCN2C(=O)c2ccc3cc(O)ccc3c2)c1` [Compound 130], the negative-log IC50 (pIC50) against ROCKII (1-543) [1] was 8.60; on ROCKII (1-543) [2], 8.20.

As to `O=C(Nc1nc2c(s1)C[C@@H](N1CCOCC1)CC2)c1cccc([C@H]2CCCN2C(=O)c2ccc(-c3ccncc3)cc2)c1` [Compound 132], the pIC50 on ROCKII (1-543) [1] is 8.59; at ROCKII (1-543) [2], 7.77.

On to `Nc1nonc1-n1nnc(C(=O)N2CCC[C@@H]2c2cccc(C(=O)Nc3nc4c(s3)C[C@@H](N3CCOCC3)CC4)c2)c1-c1ccccc1` [Compound 134], for which the values for the pIC50 at ROCKII (1-543) [1] and at ROCKII (1-543) [2] were 8.57 and 7.52, respectively.

Take `O=C(Nc1nc2c(s1)C[C@@H](N1CCOCC1)CC2)c1cccc([C@H]2CCCN2C(=O)c2csc(-c3cccnc3)n2)c1` [Compound 136]: the results for the pIC50 at ROCKII (1-543) [1] and on ROCKII (1-543) [2] were 8.59 and 8.16, respectively.

For the molecule `O=C(Nc1nc2c(s1)C[C@@H](N1CCOCC1)CC2)c1cccc([C@H]2CCCN2C(=O)c2cccc(-c3cn[nH]c3)c2)c1` [Compound 140], the pIC50 on ROCKII (1-543) [1] was 8.60; at ROCKII (1-543) [2], 8.31.

As for `CN1CCc2nc(NC(=O)c3cccc([C@H]4CCCN4C(=O)c4cn5ccc(C#N)cc5n4)c3)sc2C1` [Compound 148, 3-[(R)-1-(7-Cyano-imidazo[1,2-a]pyridine-2-carbonyl)-pyrrolidin-2-yl]-N-(5-methyl-4,5,6,7-tetrahydro-thiazolo[5,4-c]pyridin-2-yl)-benzamide], the pIC50 on ROCKII (1-543) [1] was 8.54; on ROCKII (1-543) [2] it was 7.92.

For `N#Cc1ccc(NC(=O)COc2cccc(C(=O)Nc3nc4c(s3)CC(N3CCN(C5CC5)CC3)CC4)c2)cc1` (stereo not drawn) [Compound 152], the negative-log IC50 (pIC50) is 8.21 on ROCKII (1-543) [1] and 7.62 at ROCKII (1-543) [2].

In the case of `CN1CCN(C2CCc3nc(NC(=O)c4cccc(OCC(=O)Nc5ccc(C#N)cc5)c4)sc3C2)CC1` (stereo not drawn) [Compound 154], the values for the pIC50 at ROCKII (1-543) [1] and at ROCKII (1-543) [2] were 8.19 and 7.48, respectively.

As for `COCCN(C)C1CCc2nc(NC(=O)c3cccc(OCC(=O)Nc4ccc(C#N)cc4)c3)sc2C1` (stereo not drawn) [Compound 156], the results for the pIC50 against ROCKII (1-543) [1] and on ROCKII (1-543) [2] were 8.14 and 7.51, respectively.

On to `C[C@@H](N)[C@H]1CC[C@H](C(=O)Nc2ccncc2)CC1` [Compound Y-27632, Y-27632], for which the “ventricular hypertrophy and function” value with Dahl salt-sensitive rats was “improve ventricular hypertrophy and function”. In test [3] (control rats), the “blood pressure in control rats” value is listed as “only a minor effect on blood pressure”. The “blood pressure in three rat models of hypertension” value in test [3] (hypertensive rats) is listed as “significantly decrease blood pressure”. In test [4], the neointimal formation entry is recorded as “inhibited neointimal formation”.

For the molecule `O=S(=O)(c1cccc2cnccc12)N1CCCNCC1` [fasudil], in test [5], the coronary constrictive remodeling result was “promote a regression of coronary constrictive remodeling” and the coronary stenosis entry is listed as “progressively reduce coronary stenosis”. Besides, in the test with rat stroke model, the “infarct size and neurologic deficit” value is “reduce both the infarct size and neurologic deficit”.

The pIC50 is the negative decadic logarithm of the IC50, by convention in mol/L.
